Laboratory results as given in US20180256611A1, “BISPHOSPHONATES FOR INCREASING THE TYPE 2 CHARACTER OF A MODIC CHANGE” (ANTECIP BIOVENTURES II LLC, priority 2017, published 2018).
Where “and” joins values, the source holds several entries; their conditions need not be identical. Equal entries are not always repeated.

Tested on: Modic changes (MC) on MRI in chronic LBP patients
Experiment: MRI study of size and type of Modic changes over one year after a single intravenous infusion of 5 mg zoledronic acid vs placebo
Assay type: in vivo, human
Method: This study was designed to compare changes in size and type of MC over one year after a single intravenous infusion of 5 mg zoledronic acid (ZA) vs placebo among chronic LBP patients with MC on MRI, and evaluate whether MRI changes correlate with improvement in clinical symptoms.
The study population consisted of patients with chronic LBP and MC on MRI. Inclusion criteria were LBP for at least three months, LBP intensity of at least six on a 10-cm Visual Analog Scale (VAS) or Oswestry Disability Index (ODI) of at least 30%, and a MC on MRI performed within at most six months prior to enrollment. The exclusion criteria included renal impairment, hypocalcaemia, hypersensitivity to bisphosphonates or the infusion, the presence of red flags, nerve root entrapment, willingness for early retirement, and childbearing potential.
All patients (N=20 in both intervention groups) had MRI at baseline (0.23-1.5 T) and one year (1.5-3 T). We evaluated the level, type, volume (cm^3) and proportion of M1 and M2 of all MC. MC were classified to pure M1 (M1 (100%)), mixed M1/2 with predominating M1 (M1/2 (65:35%)) or predominating M2 (M1/2 (35:65%)), and pure M2 (M2 (100%)). The first two were considered M1-dominant, and the latter two M2-dominant. Volumes of M1 and M2 were calculated separately for the primary MC, assumed to cause the symptoms, and for other MC. Cross tabulations were used to describe the distributions of MC type in ZA and placebo groups at baseline and one year. The treatment differences in M1 and M2 volumes, from baseline to one year, were analyzed using ANCOVA with adjustments for age, sex, body mass index and smoking. The correlations of MRI changes with changes in intensity of LBP (10-cm Visual Analog Scale) and Oswestry Disability Index (ODI) were analyzed using Pearson correlations.
Patients were randomized to receive a single intravenous infusion of 5 mg ZA in 100 ml saline (n=20) or 100 ml saline as placebo (n=20) over a 15-minute period. Before administration of the infusion, all patients received oral ibuprofen 600 mg or paracetamol 1 g to prevent acute phase reactions, and 100 000 units of Vitamin D (Vigantol®) to prevent hypocalcaemia. Patients, the principal investigator, performing the screening and follow-up assessments, and the radiologist evaluating the MRI scans were blinded to the treatment allocation.
Baseline MRIs were obtained with five 1.5 T units and a 0.23 T unit. There was some variation in imaging protocols due to the multiple units used. Protocols were of clinical imaging purpose established to spine imaging. The imaging parameters of sagittal T1-weighted (T1W) turbo spin-echo (TSE) or fast spin-echo (FSE) sequences with fluid attenuation inversion recovery (FLAIR) were repetition time (TR) 1800-2270 ms/inversion time (TI) 860 ms/echo time (TE) 9-29 ms (N=16) and without FLAIR: TR 326-793 ms/TE 8-18 ms (N=23). The imaging parameters of sagittal T2-weighted (T2W) TSE/FSE sequences were TR 3000-4500 ms/TE 105-130 ms (N=40). The imaging parameters of short tau inversion recovery sequences (STIR) were e.g. TR 3400/TI 150/TE 70. Spacing, including slice thickness and slice gap, of the image slices was 4.4-6.2 mm in all sequences.
At the one-year follow-up, MRIs were obtained with two 1.5 T units and a 3 T unit. The imaging parameters of sagittal T1-weighted TSE or FSE sequences with FLAIR were TR 2047-2270 ms/TI 860-900 ms/TE 9-29 ms (N=38) and without FLAIR: TR 540-587/TE 12-24 ms (N=2). The imaging parameters of sagittal T2-weighted TSE or FSE sequences were TR 2796-3500 ms/TE 101-123 ms (N=40). Spacing was 3.6-5 mm in all sequences.

[1] = ZA vs placebo, change to follow-up

O=P(O)(O)C(O)(Cn1ccnc1)P(=O)(O)O [ZA, zoledronic acid]
Total volume of other than the primary Modic lesion, difference (95% CI), unadjusted (ZA vs placebo): −0.21 (−1.28, 0.86) cm^3 | Volume of M1 of other than the primary Modic lesion, difference (95% CI), unadjusted (ZA vs placebo): −0.17 (−2.12, 1.78) cm^3 | Volume of M2 of other than the primary Modic lesion, difference (95% CI), unadjusted (ZA vs placebo): −0.04 (−1.99, 1.90) cm^3 | Total volume of the primary Modic lesion, difference (95% CI), adjusted for age, sex, BMI and smoking [1]: −1.64 (−4.03, 0.76) cm^3 | Total volume of the primary Modic lesion, difference (95% CI), age-adjusted analysis [1]: −1.46 (−3.50, 0.59) cm^3 | Volume of M1 of the primary Modic lesion, difference (95% CI), age-adjusted analysis [1]: −1.92 (−4.65, 0.82) cm^3 | Volume of M2 of the primary Modic lesion, difference (95% CI), adjusted for age, sex, BMI and smoking [1]: 0.12 cm^3 and 0.12 (−2.50, 2.75) cm^3 | Volume of M2 of the primary Modic lesion, difference (95% CI), age-adjusted analysis [1]: 0.46 (−1.90, 2.82) cm^3 | Proportion of M1 volume of the total volume, other than primary MC (at baseline, placebo 22%): 13% | Proportion of M1 volume of the total volume, other than primary MC (at one year, placebo 36%): 24% | Total volume of other than the primary Modic lesion, mean (SD) (baseline): 7.53 (7.53) cm^3 | Total volume of the primary Modic lesion, mean (SD) (baseline): 12.0 cm^3 and 11.99 (5.14) cm^3 | Volume of M2 of other than the primary Modic lesion, mean (SD) (baseline): 6.52 (7.63) cm^3 | Volume of M2 of the primary Modic lesion, mean (SD) (baseline): 4.54 (3.90) cm^3 | Total volume of other than the primary Modic lesion, mean (SD) change (baseline to follow-up): 0.39 (1.02) cm^3 | Volume of M1 of other than the primary Modic lesion, mean (SD) change (baseline to follow-up): 0.86 (2.19) cm^3 | Volume of M2 of other than the primary Modic lesion, mean (SD) change (baseline to follow-up): −0.47 (2.44) cm^3 | Total volume of other than primary MC increased by (baseline to one year, placebo 11%): 5% | M2 volume of primary MC increased by (baseline to one year, placebo 34%): 56% | M1 volume of primary MC decreased by (baseline to one year, placebo increased by 18%): 13% | Total volume of the primary Modic lesion, mean (SD) change (baseline to one-year follow-up): 1.6 cm^3 and 1.58 (2.18) cm^3 | Volume of M1 of the primary Modic lesion, mean (SD) change (baseline to one-year follow-up): −0.96 cm^3 and −0.96 (4.33) cm^3 | Volume of M2 of the primary Modic lesion, mean (SD) change (baseline to one-year follow-up): 2.54 cm^3 and 2.54 (2.94) cm^3 | Volume of M1 of other than the primary Modic lesion, mean (SD) (baseline, n=17): 1.02 (1.90) cm^3 | Volume of M1 of the primary Modic lesion, mean (SD) (baseline, n=20): 7.44 (4.47) cm^3 | Total volume of other than the primary Modic lesion, mean (SD) (follow-up): 7.92 (7.31) cm^3 | Volume of M1 of other than the primary Modic lesion, mean (SD) (follow-up): 1.88 (2.47) cm^3 | Volume of M2 of other than the primary Modic lesion, mean (SD) (follow-up): 6.05 (6.43) cm^3 | Total volume of the primary Modic lesion, mean (SD) (follow-up (one year)): 13.57 (5.42) cm^3 | Volume of M1 of the primary Modic lesion, mean (SD) (follow-up (one year)): 6.48 (5.25) cm^3 | Volume of M2 of the primary Modic lesion, mean (SD) (follow-up (one year)): 7.09 (4.50) cm^3 | M1-dominant primary MC converted to M2-dominant (one-year follow-up, placebo 15% (p=0.087)): 45%
